Results published in US20110052562A1, “BENZIMIDAZOLES AND ANALOGS AS RHO KINASE INHIBITORS” (The Scripps Research Institute, priority 2007, published 2011).

Tests used:
Rhok2 = Rhok2 (Homo sapiens, UniProt O75116); experiment: Enzymatic Rho kinase assay (Kinase-Glo luminescence, S6 peptide substrate); assay type: biochemical; conditions: Rhok2 enzyme, 2 hours at 25 degrees Celsius
Experimental: Enzymatic Rho kinase (ROCK I and ROCK II) Assays.
The assay is based on ability of Rhok2 to phosphorylate a specific peptide sequence derived from its substrate—ribosomal protein S6 (amino acid residues 229-239, (LCB-[…]-NH2)). Rhok2 uses ATP as a donor of phosphate for the phosphorylation of the substrate, which leads to the depletion of ATP in the reaction mix. An assay kit (“Kinase-Glo”, Promega) was used to quantify enzyme activity. Using this kit, residual amounts of ATP are measured by a secondary enzymatic reaction, through which luciferase utilizes the remaining ATP to produce luminescence. Luminescent signal is directly proportional to ATP concentration and inversely proportional to Rhok2 activity.
This dose response assay was conducted in 1536 well plate format. Each concentration was tested nominally in triplicate. […] Plates were incubated for 10 minutes and luminescence was read on Perkin-Elmer Viewlux for 60 seconds. […] The percent inhibition for each well has been calculated as follows: % inhibition=(test compound−median_negative_control)/(median_positive_control−median_negative_control)*100 where the positive control is Y-27632 (13 micromolar) and negative control is DMSO only. […]

smooth muscle cells = experiment: Myosin Light Chain Double Phosphorylation Assay (ppMLC, cell assay); assay type: cell-based; conditions: serum starved smooth muscle cells, compound 1 h, LPA 30 min
Experimental: Myosin Light Chain Double Phosphorylation Assays (ppMLC, cell assay).
Serum starved smooth muscle cells were incubated with compound for 1 h before induction of myosin light chain phosphorylation by LPA for 30 min. Cells were washed and fixed before staining for phosphorylated myosin light chain and DNA. Phosphorylation status was quantitated with the LI-COR Odyssey Imager. […] For example, the IC50 of Example 169 is 6 nM.

N2a cells = experiment: Neurite Length Assay (N2a, cell assay); assay type: cell-based; conditions: Mus musculus, neurite retraction induced by 5 uM LPA
Experimental: Neurite Length Assay (N2a, Cell Assay).
N2a cells are maintained in DMEM/FBS at 37 C and 5% CO2. For the experiment the cells were plated on a poly-D-lysine coated 96-well tissue culture plate. After attachment, cell differentiation was induced for 2 days by addition of 10 uM retinoic acid. Cells were treated for 1 h with a dilution of compounds in 0.3% DMSO final concentration before neurite retraction was induced by 5 uM LPA. Cells were stained for tubulin and nuclei and images were acquired on a INCell 1000 workstation. Images were analyzed using the developer toolbox and neurite length was quantitated. […] For example, the IC50 of Example 169 is 4 nM.

Sequence of Rhok2 (O75116 whole entry): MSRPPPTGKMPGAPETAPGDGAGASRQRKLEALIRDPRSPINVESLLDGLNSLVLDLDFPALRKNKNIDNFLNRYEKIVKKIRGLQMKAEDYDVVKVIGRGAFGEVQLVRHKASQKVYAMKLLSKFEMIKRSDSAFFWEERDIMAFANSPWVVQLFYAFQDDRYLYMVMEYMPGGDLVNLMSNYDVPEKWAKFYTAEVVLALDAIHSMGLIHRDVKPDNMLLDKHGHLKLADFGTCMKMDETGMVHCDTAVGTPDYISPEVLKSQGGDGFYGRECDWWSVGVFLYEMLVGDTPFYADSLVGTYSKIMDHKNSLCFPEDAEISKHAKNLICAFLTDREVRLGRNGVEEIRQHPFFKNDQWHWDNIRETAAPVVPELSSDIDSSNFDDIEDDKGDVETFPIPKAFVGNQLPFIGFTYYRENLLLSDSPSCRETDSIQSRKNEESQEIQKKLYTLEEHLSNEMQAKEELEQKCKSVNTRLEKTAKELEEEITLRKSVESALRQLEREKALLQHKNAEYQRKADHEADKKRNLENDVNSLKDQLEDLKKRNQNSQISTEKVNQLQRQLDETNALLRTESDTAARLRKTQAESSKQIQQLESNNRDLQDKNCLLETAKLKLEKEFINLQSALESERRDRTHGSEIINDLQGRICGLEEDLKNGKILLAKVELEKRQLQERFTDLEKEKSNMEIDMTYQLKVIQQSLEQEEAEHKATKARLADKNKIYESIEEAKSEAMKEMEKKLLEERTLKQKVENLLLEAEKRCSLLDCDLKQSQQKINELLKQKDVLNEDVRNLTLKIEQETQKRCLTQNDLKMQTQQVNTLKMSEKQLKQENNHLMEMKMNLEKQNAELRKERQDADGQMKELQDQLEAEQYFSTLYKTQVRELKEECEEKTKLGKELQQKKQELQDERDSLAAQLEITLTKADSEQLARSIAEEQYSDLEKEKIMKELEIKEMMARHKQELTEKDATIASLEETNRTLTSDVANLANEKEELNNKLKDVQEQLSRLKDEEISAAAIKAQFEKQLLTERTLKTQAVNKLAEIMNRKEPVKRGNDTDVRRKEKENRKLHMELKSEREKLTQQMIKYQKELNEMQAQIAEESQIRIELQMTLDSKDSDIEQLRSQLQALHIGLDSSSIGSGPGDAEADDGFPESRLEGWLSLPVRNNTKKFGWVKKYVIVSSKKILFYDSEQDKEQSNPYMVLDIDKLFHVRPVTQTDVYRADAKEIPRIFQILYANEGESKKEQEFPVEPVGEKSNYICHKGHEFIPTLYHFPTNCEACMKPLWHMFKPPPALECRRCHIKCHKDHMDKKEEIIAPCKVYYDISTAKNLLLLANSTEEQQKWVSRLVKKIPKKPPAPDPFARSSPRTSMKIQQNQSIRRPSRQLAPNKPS

SMILES: COc1ccc2c(c1)CC(c1nc3cc(-c4ccncc4)cc(F)c3[nH]1)CO2 (stereo not drawn) [Example 169, 7-fluoro-2-(6-methoxychroman-3-yl)-5-(pyridin-4-yl)-1H-benzo[d]imidazole]
- IC50 (Rhok2): 6 nM
- IC50 (smooth muscle cells): 6 nM
- IC50 (N2a cells): 4 nM
